Literature values in patent publication US20070202162A1, “EXTENDED RELEASE PHARMACEUTICAL COMPOSITIONS” (priority 2006, published 2007).
Structures can show the parent of a compound that is named as a salt.

Conditions: in water and ethanol

- solubility: readily soluble in water and ethanol
Structure (SMILES): CC(C)NCC(O)COc1cccc2ccccc12 (stereo not shown) [Propranolol hydrochloride, 1-(Isopropylamino)-3-(1-naphthyloxy)-2-propanol]
